Data as given in patent US11285127B2, “Compositions and methods for lowering triglycerides without raising LDL-C levels in a subject on concomitant statin therapy” (Amarin Pharmaceuticals Ireland Limited, priority 2013, dated 2022).

Test system: patients with fasting triglyceride levels >200 mg/dl and <500 mg/dl despite statin therapy
Assay: 12-week study: lipoprotein particle concentration (VLDL, LDL, HDL; nuclear magnetic resonance)
Type: in vivo, human
Conditions: for LDL Particle Concentration, Week 12 EP Median (IQR): MITT; for LDL Particle Concentration, Percent change from Baseline, Median (IQR) / LDL Particle Concentration, Difference from placebo, Estimated median: Week 12, MITT; for LDL Particle Concentration, Difference from placebo, Estimated median: difference in percent change
Text: Parameters (a)-(z) can be measured in accordance with any clinically acceptable methodology. For example, triglycerides, total cholesterol, HDL-C and fasting blood sugar can be sample from serum and analyzed using standard photometry techniques. VLDL-TG, LDL-C and VLDL-C can be calculated or determined using serum lipoprotein fractionation by preparative ultracentrifugation and subsequent quantitative analysis by refractometry or by analytic ultracentrifugal methodology. Apo A1, Apo B and hsCRP can be determined from serum using standard nephelometry techniques. Lipoprotein (a) can be determined from serum using standard turbidimetric immunoassay techniques. LDL particle number and particle size can be determined using nuclear magnetic resonance (NMR) spectrometry. Remnants lipoproteins and LDL-phospholipase A2 can be determined from EDTA plasma or serum and serum, respectively, using enzymatic immunoseparation techniques. Oxidized LDL, intercellular adhesion molecule-1 and interleukin-2 levels can be determined from serum using standard enzyme immunoassay techniques. These techniques are described in detail in standard textbooks, for example Tietz Fundamentals of Clinical Chemistry, 6th Ed. (Burtis, Ashwood and Borter Eds.), WB Saunders Company.
A multi-center, placebo-controlled, randomized, double-blind, 12-week study was performed to evaluate the efficacy and safety of >96% E-EPA in patients with fasting triglyceride levels >200 mg/dl and <500 mg/dl despite statin therapy (the mean of two qualifying entry values needed to be >185 mg/dl and at least one of the values needed to be >200 mg/dl). The primary objective of the study was to determine the efficacy of >96% E-EPA 2 g daily and 4 g daily, compared to placebo, in lowering fasting TG levels in patients with high risk for cardiovascular disease and with fasting TG levels 200 mg/dl and <500 mg/dl, despite treatment to LDL-C goal on statin therapy.
The secondary objectives of this study were the following: • 1. To determine the safety and tolerability of >96% E-EPA 2 g daily and 4 g daily; • 2. To determine the effect of >96% E-EPA on lipid and apolipoprotein profiles including total cholesterol (TC), non-high-density lipoprotein cholesterol (non-HDL-C), low density lipoprotein cholesterol (LDL-C), high density lipoprotein cholesterol (HDL-C), and […]; • 3. To determine the effect of >96% E-EPA on lipoprotein associated phospholipase A2 (Lp-PLA2) from baseline to week 12; • 4. To determine the effect of >96% E-EPA on low-density lipoprotein (LDL) particle number and size; • 5. To determine the effect of >96% E-EPA on oxidized LDL; • 6. To determine the effect of >96% E-EPA on fasting plasma glucose (FPG) and hemoglobin A1c (HbA1c); • 7. To determine the effect of >96% E-EPA on insulin resistance; • 8. To determine the effect of >96% E-EPA on high-sensitivity C-reactive protein (hsCRP); • 9. To determine the effects of >96% E-EPA 2 g daily and 4 g daily on the incorporation of fatty acids into red blood cell membranes and into plasma phospholipids; • 10. To explore the relationship between baseline fasting TG levels and the reduction in fasting TG levels; and • 11. To explore the relationship between changes of fatty acid concentrations in plasma and red blood cell membranes, and the reduction in fasting TG levels.
The primary efficacy variable for the double-blind treatment period was percent change in TG from baseline to Week 12 endpoint. […]

[1] = 2 g/day, 12 weeks, placebo-adjusted Hodges-Lehmann median
[2] = 4 g/day, 12 weeks, placebo-adjusted Hodges-Lehmann median
[3] = 4 g/day, 12 weeks, placebo-adjusted Hodges-Lehmann median, listed as IPE
[4] = IPE 2 g/day (n = 222), 12 weeks

CC/C=C\C/C=C\C/C=C\C/C=C\C/C=C\CCCC(=O)OCC [AMR101, ethyl eicosapentaenoate]
IDL particle concentration, Median Change From Baseline IPE 2 g/day vs Placebo [1]: 8.6% | Large HDL particle concentration, Median Change From Baseline IPE 2 g/day vs Placebo [1]: −13.5% | Large LDL particle concentration, Median Change From Baseline IPE 2 g/day vs Placebo [1]: 26.5% | Large VLDL particle concentration, Median Change From Baseline IPE 2 g/day vs Placebo [1]: −24.2% | Medium HDL particle concentration, Median Change From Baseline IPE 2 g/day vs Placebo [1]: −4.5% | Medium VLDL particle concentration, Median Change From Baseline IPE 2 g/day vs Placebo [1]: 2.6% | Small HDL particle concentration, Median Change From Baseline IPE 2 g/day vs Placebo [1]: −0.2% | Small LDL particle concentration, Median Change From Baseline IPE 2 g/day vs Placebo [1]: −14.7% | Small VLDL particle concentration, Median Change From Baseline IPE 2 g/day vs Placebo [1]: 16.5% | Total HDL particle concentration, Median Change From Baseline IPE 2 g/day vs Placebo [1]: −3.1% | Total LDL particle concentration, Median Change From Baseline IPE 2 g/day vs Placebo [1]: −7.5% | Total VLDL particle concentration, Median Change From Baseline IPE 2 g/day vs Placebo [1]: 1.8% | Reduction of median concentration of small LDL particles over baseline when adjusted for placebo control (4 g per day, 12 weeks): 13.5% | Reduction of median concentration of total HDL over baseline when adjusted for placebo (4 g per day, 12 weeks): 7.4% | Reduction of median concentration of total LDL over baseline when adjusted for placebo (4 g per day, 12 weeks): 7.7% | Reduction of median concentration of total VLDL over baseline when adjusted for placebo (4 g per day, 12 weeks): 12.2% | IDL particle concentration, Median Change From Baseline IPE 4 g/day vs Placebo [2]: 10.0% | Medium HDL particle concentration, Median Change From Baseline IPE 4 g/day vs Placebo [2]: −6.5% | Small HDL particle concentration, Median Change From Baseline IPE 4 g/day vs Placebo [2]: −2.8% | Small LDL particle concentration, Median Change From Baseline IPE 4 g/day vs Placebo [2]: −13.5% | Small VLDL particle concentration, Median Change From Baseline IPE 4 g/day vs Placebo [2]: 2.8% | Total HDL particle concentration, Median Change From Baseline IPE 4 g/day vs Placebo [2]: −7.4% | Total LDL particle concentration, Median Change From Baseline IPE 4 g/day vs Placebo [2]: −7.7% | Total VLDL particle concentration, Median Change From Baseline IPE 4 g/day vs Placebo [2]: −12.2% | Large HDL particle concentration, Median Change From Baseline IPE 4 g/day vs Placebo [3]: −31.0% | Large LDL particle concentration, Median Change From Baseline IPE 4 g/day vs Placebo [3]: 34.2% | Large VLDL particle concentration, Median Change From Baseline IPE 4 g/day vs Placebo [3]: −46.4% | Medium VLDL particle concentration, Median Change From Baseline IPE 4 g/day vs Placebo [3]: −12.1% | Small LDL particle concentration, Median Change From Baseline IPE 4 g/day vs Placebo [3]: −13.5% | Total HDL particle concentration, Median Change From Baseline IPE 4 g/day vs Placebo [3]: −7.4% | Total LDL particle concentration, Median Change From Baseline IPE 4 g/day vs Placebo [3]: −7.7% | Total VLDL particle concentration, Median Change From Baseline IPE 4 g/day vs Placebo [3]: −12.2% | LDL Particle Concentration, Week 12 EP Median (IQR) (AMR101 2g/d + statin, n 222): 1215.0 (355.0) nmol/L | LDL Particle Concentration, Percent change from Baseline, Median (IQR) (AMR101 2g/d + statin): 4.7 (29.2) % | LDL Particle Concentration, Difference from placebo, Estimated median (AMR101 2g/d + statin): −7.5 | LDL Particle Concentration, Week 12 EP Median (IQR) (AMR101 4g/d + statin, n 216): 1190.5 (512.0) nmol/L | LDL Particle Concentration, Percent change from Baseline, Median (IQR) (AMR101 4g/d + statin): 3.8 (31.8) % | LDL Particle Concentration, Difference from placebo, Estimated median (AMR101 4g/d + statin): −7.7 | IDL particle concentration, Change from Baseline % (median) [4]: 10.5% | IDL particle concentration, End of Treatment (median) [4]: 63.5 nmol/L | Large HDL particle concentration, Change from Baseline % (median) [4]: −4.0% | Large HDL particle concentration, End of Treatment (median) [4]: 2.4 µmol/L | Large LDL particle concentration, Change from Baseline % (median) [4]: 47.7% | Large LDL particle concentration, End of Treatment (median) [4]: 202.0 nmol/L | Large VLDL particle concentration, Change from Baseline % (median) [4]: −19.7% | Large VLDL particle concentration, End of Treatment (median) [4]: 10 nM | Medium HDL particle concentration, Change from Baseline % (median) [4]: 2.9% | Medium HDL particle concentration, End of Treatment (median) [4]: 7.2 µmol/L | Medium VLDL particle concentration, Change from Baseline % (median) [4]: 7.9% | Medium VLDL particle concentration, End of Treatment (median) [4]: 59.6 nmol/L | Small HDL particle concentration, Change from Baseline % (median) [4]: −0.6% | Small HDL particle concentration, End of Treatment (median) [4]: 23.8 µmol/L | Small LDL particle concentration, Change from Baseline % (median) [4]: −4.3% | Small LDL particle concentration, End of Treatment (median) [4]: 920.5 nmol/L | Small VLDL particle concentration, Change from Baseline % (median) [4]: 22.1% | Small VLDL particle concentration, End of Treatment (median) [4]: 49.6 nmol/L | Total HDL particle concentration, Change from Baseline % (median) [4]: 0.7% | Total HDL particle concentration, End of Treatment (median) [4]: 34.7 µmol/L | Total LDL particle concentration, Change from Baseline % (median) [4]: 4.7% | Total LDL particle concentration, End of Treatment (median) [4]: 1215 nmol/L | Total VLDL particle concentration, Change from Baseline % (median) [4]: 12.0%
